Measured values as given in patent US20230382924A1, “MODULATORS OF CYSTIC FIBROSIS TRANSMEMBRANE CONDUCTANCE REGULATOR” (VERTEX PHARMACEUTICALS INCORPORATED, priority 2020, published 2023).
Where two headings read alike, the source gives them in different places.

Molecular target: CFTR (Homo sapiens, UniProt P13569)
Experiment: Membrane Potential Dye, Enteroid Assay A
Format: cell-based
Settings: for EC50: read-out: Ent. A EC50
Outline: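 Signal is reported as % Activity relative to a triple CFTR modulator control (3 μM + 3 μM + 300 nM acute). Read-out: membrane potential fluorescence (20 μM methyl oxonol) monitored for 15 min after chloride-free stimulation. Dye loading took 25 min at room temperature in Bath 1 buffer containing CaCC blockers.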

CFTR, sequence (P13569 with tags, fused parts or gaps DEL508-508): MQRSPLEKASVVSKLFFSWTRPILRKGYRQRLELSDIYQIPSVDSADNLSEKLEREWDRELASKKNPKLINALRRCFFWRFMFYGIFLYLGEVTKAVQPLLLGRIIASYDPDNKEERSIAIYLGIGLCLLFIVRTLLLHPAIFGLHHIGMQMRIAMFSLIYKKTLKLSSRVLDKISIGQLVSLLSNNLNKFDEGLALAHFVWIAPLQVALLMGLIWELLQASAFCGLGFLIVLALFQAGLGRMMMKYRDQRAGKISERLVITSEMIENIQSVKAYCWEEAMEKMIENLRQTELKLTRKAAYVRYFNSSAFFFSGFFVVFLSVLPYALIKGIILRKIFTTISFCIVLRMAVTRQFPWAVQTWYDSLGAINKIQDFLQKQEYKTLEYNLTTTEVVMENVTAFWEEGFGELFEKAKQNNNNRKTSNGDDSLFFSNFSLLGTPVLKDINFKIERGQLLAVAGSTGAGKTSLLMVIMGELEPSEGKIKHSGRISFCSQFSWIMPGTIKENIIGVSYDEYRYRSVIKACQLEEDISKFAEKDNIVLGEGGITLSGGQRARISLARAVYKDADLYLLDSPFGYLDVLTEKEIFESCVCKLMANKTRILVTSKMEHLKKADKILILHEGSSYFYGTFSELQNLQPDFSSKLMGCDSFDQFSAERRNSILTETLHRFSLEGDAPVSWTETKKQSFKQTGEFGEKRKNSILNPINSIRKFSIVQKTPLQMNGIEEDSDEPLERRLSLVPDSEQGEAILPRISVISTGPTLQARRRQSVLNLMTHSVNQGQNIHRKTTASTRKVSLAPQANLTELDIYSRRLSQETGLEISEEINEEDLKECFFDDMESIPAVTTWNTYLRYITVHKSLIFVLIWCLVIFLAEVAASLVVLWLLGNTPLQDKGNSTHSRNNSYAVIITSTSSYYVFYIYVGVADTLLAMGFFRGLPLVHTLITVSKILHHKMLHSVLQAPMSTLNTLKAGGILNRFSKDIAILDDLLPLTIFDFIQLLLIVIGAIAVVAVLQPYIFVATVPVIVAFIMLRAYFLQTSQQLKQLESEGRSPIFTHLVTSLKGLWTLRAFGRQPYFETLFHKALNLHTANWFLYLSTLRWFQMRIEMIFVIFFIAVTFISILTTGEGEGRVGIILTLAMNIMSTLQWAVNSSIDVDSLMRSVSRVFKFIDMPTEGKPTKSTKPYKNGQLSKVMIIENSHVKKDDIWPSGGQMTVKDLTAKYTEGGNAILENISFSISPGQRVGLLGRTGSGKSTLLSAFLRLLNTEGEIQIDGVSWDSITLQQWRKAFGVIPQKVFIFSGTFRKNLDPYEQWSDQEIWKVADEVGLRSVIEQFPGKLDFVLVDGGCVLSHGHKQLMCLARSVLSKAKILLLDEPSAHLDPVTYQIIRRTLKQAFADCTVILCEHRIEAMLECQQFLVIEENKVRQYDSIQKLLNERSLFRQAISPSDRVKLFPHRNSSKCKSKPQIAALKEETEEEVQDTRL

| Ent. A Max Activity (Table 9) | EC50 (Table 9) [nM] | EC50 (Table 8) [nM] | Ent. A Max Activity (Table 8) | Compound | also measured |
| --- | --- | --- | --- | --- | --- |
| – | – | – | – | Cc1cccc(C)c1-c1cc2nc(n1)NS(=O)(=O)c1cccc(c1)C(=O)NCC(c1ccccc1)CO2 (centres unmarked) [Compound 201] | EC50 (Enteroid Assay A): < 1000 nM |
| – | – | – | – | Cc1cccc(C)c1-c1cc2nc(n1)NS(=O)(=O)c1cccc(c1)C(=O)NCC1(CCCCC1)CO2 [Compound 205] | Ent. A Max Activity (Enteroid Assay A): +++ (+++ is >600%); EC50 (Enteroid Assay A): < 1000 nM |
| + (+ is <30%) | – | – | – | Cc1cccc(C)c1-c1cc2nc(n1)NS(=O)(=O)c1ccccc1C(=O)NCC(c1ccc(C(C)(C)C)cc1)O2 (centres unmarked) [Compound 222] | – |
| + (+ is <30%) | – | – | – | Cc1cccc(C)c1-c1cc2nc(n1)NS(=O)(=O)c1ccccc1C(=O)NC(CC(C)C)CO2 (centres unmarked) [Compound 223] | – |
| ++ (++ is 30-60%) | 1000 to 3000 | – | – | Cc1cccc(C)c1-c1cc2nc(n1)NS(=O)(=O)c1cccc(c1)C(=O)N[C@@H](CC(C)C)CCO2 [Compound 224] | – |
| +++ (+++ is >60%) | < 1000 | – | – | Cc1cccc(C)c1-c1cc2nc(n1)NS(=O)(=O)c1cccc(c1)C(=O)N[C@H](CC(C)C)CCO2 [Compound 225] | – |
| +++ (+++ is >60%) | < 1000 | – | – | CCC[C@H]1NC(=O)c2cccc(c2)S(=O)(=O)Nc2nc(cc(-c3c(C)cccc3C)n2)O[C@H]1c1ccc(C(C)(C)C)cc1 [Compound 226] | – |
| +++ (+++ is >60%) | < 1000 | – | – | CCC[C@H]1NC(=O)c2cccc(c2)S(=O)(=O)Nc2nc(cc(-c3c(C)cccc3C)n2)O[C@@H]1c1ccc(C(C)(C)C)cc1 [Compound 227] | – |
| + (+ is <30%) | < 1000 | – | – | Cc1cccc(C)c1-c1cc2nc(n1)NS(=O)(=O)c1cccc(c1)C(=O)N[C@@H](C)[C@H](c1ccc(C(C)(C)C)cc1)O2 [Compound 228] | – |
| – | – | < 1000 | – | Cc1cccc(C)c1-c1cc2nc(n1)NS(=O)(=O)c1cccc(c1)C(=O)NCC(c1ccc(-c3ccccc3)cc1)O2 (centres unmarked) [Compound 231] | – |
| – | – | – | + (+ is <30%) | Cc1cccc(C)c1-c1cc2nc(n1)NS(=O)(=O)c1cccc(c1)C(=O)NC[C@@H](c1ccccn1)O2 [Compound 232] | – |
| – | – | – | + (+ is <30%) | Cc1cccc(C)c1-c1cc2nc(n1)NS(=O)(=O)c1cccc(c1)C(=O)NC[C@@H](c1ccccn1)O2 [Compound 233] | – |
| – | – | – | + (+ is <30%) | Cc1cccc(C)c1-c1cc2nc(n1)NS(=O)(=O)c1cccc(c1)C(=O)NCC(c1ccccn1)O2 (centres unmarked) [Compound 234] | – |
| – | – | < 1000 | +++ (+++ is >60%) | Cc1cccc(C)c1-c1cc2nc(n1)NS(=O)(=O)c1cccc(c1)C(=O)N[C@H](CC(C)C)[C@H](C)O2 [Compound 235] | – |
| – | – | – | + (+ is <30%) | Cc1cccc(C)c1-c1cc2nc(n1)NS(=O)(=O)c1cccc(c1)C(=O)NC(C(=O)NCc1ccccc1)CO2 (centres unmarked) [Compound 236] | – |
| – | – | – | + (+ is <30%) | Cc1cccc(C)c1-c1cc2nc(n1)NS(=O)(=O)c1cccc(c1)C(=O)NC(C(=O)NC1CCCCC1)CO2 (centres unmarked) [Compound 237] | – |
| – | – | 1000 to 3000 | +++ (+++ is >60%) | Cc1cccc(C)c1-c1cc2nc(n1)NS(=O)(=O)c1cccc(c1)C(=O)N[C@H](CC(C)C)C(C1CC1)O2 (some centres unmarked) [Compound 238] | – |
| ++ (++ is 30-60%) | 3000 to 30000 | – | – | Cc1cccc(C)c1-c1cc2nc(n1)NS(=O)(=O)c1cccc(c1)CN[C@H](CC(C)C)CO2 [Compound 240] | – |
| – | – | < 1000 | +++ (+++ is >60%) | Cc1cccc(C)c1-c1cc2nc(n1)NS(=O)(=O)c1cccc(c1)C(=O)NCC(Cc1ccc(C(C)(C)C)cc1)O2 (centres unmarked) [Compound 241] | – |
| – | – | < 1000 | – | Cc1cccc(C)c1-c1cc2nc(n1)NS(=O)(=O)c1cccc(c1)C(=O)NCC(Cc1ccc(C(C)(C)C)cc1)O2 (centres unmarked) [Compound 242] | – |
| – | – | < 1000 | +++ (+++ is >60%) | Cc1cccc(C)c1-c1cc2nc(n1)NS(=O)(=O)c1cccc(c1)C(=O)NCC(Cc1ccc(C(C)(C)C)cc1)O2 (centres unmarked) [Compound 243] | – |
| – | – | < 1000 | – | Cc1cccc(C)c1-c1cc2nc(n1)NS(=O)(=O)c1cccc(c1)C(=O)NCC(C13CC4CC(CC(C4)C1)C3)O2 (centres unmarked) [Compound 244] | – |
| – | – | 3000 to 30000 | – | Cc1cccc(C)c1-c1cc2nc(n1)NS(=O)(=O)c1cccc(c1)C(=O)NCC(c1ccc(C(C)(C)O)cc1)O2 (centres unmarked) [Compound 245] | – |
| – | – | < 1000 | +++ (+++ is >60%) | Cc1cccc(C)c1-c1cc2nc(n1)NS(=O)(=O)c1cccc(c1)C(=O)NCC(c1cccc(C(C)(C)C)c1)O2 (centres unmarked) [Compound 247] | – |
| – | – | < 1000 | +++ (+++ is >60%) | Cc1cccc(C)c1-c1cc2nc(n1)NS(=O)(=O)c1cccc(c1)C(=O)NCC(C1CCN(C(=O)OC(C)(C)C)CC1)O2 (centres unmarked) [Compound 248] | – |
| – | – | < 1000 | – | Cc1cccc(C)c1-c1cc2nc(n1)NS(=O)(=O)c1cccc(c1)C(=O)NCC(c1ccc(OC(C)C)cc1)O2 (centres unmarked) [Compound 249] | – |
| – | – | < 1000 | +++ (+++ is >60%) | Cc1cccc(C)c1-c1cc2nc(n1)NS(=O)(=O)c1cccc(c1)C(=O)NCC(c1ccc(C#N)cc1)O2 (centres unmarked) [Compound 250] | – |

| Ent. A Max Activity (Table 9) | EC50 (Table 9) [nM] | EC50 (Table 8) [nM] | Ent. A Max Activity (Table 8) | Compound | also measured |
| --- | --- | --- | --- | --- | --- |
| – | – | < 1000 | +++ (+++ is >60%) | Cc1cccc(C)c1-c1cc2nc(n1)NS(=O)(=O)c1cccc(c1)C(=O)NCC(c1ccc(Cl)cc1)O2 (centres unmarked) [Compound 251] | – |
| – | – | 3000 to 30000 | – | Cc1cccc(C)c1-c1cc2nc(n1)NS(=O)(=O)c1cccc(c1)C(=O)NCC(c1cccc(C#N)c1)O2 (centres unmarked) [Compound 252] | – |
| – | – | < 1000 | +++ (+++ is >60%) | Cc1cccc(C)c1-c1cc2nc(n1)NS(=O)(=O)c1cccc(c1)C(=O)NCC(c1ccc3ccccc3c1)O2 (centres unmarked) [Compound 253] | – |
| – | – | – | + (+ is <30%) | Cc1cccc(C)c1-c1cc2nc(n1)NS(=O)(=O)c1cccc(c1)C(=O)NC[C@@H](CC(C)C)O2 [Compound 254] | – |
| – | – | 1000 to 3000 | – | Cc1cccc(C)c1-c1cc2nc(n1)NS(=O)(=O)c1cccc(c1)C(=O)NCC(CC(C)C)O2 (centres unmarked) [Compound 255] | – |
| +++ (+++ is >60%) | < 1000 | – | – | Cc1cccc(C)c1-c1cc2nc(n1)NS(=O)(=O)c1cccc(c1)C(=O)NC[C@@H](c1ccc(C(C)(C)C(F)(F)F)cc1)O2 [Compound 256] | – |
| + (+ is <30%) | < 1000 | – | – | Cc1cccc(C)c1-c1cc2nc(n1)NS(=O)(=O)c1cccc(c1)C(=O)NC[C@@H](c1ccc(C(C)(C)C(F)(F)F)cc1)O2 [Compound 257] | – |
| +++ (+++ is >60%) | < 1000 | – | – | CCC(CC)(CC)c1ccc([C@@H]2CNC(=O)c3cccc(c3)S(=O)(=O)Nc3nc(cc(-c4c(C)cccc4C)n3)O2)cc1 [Compound 258] | – |
| + (+ is <30%) | < 1000 | – | – | CCC(CC)(CC)c1ccc([C@@H]2CNC(=O)c3cccc(c3)S(=O)(=O)Nc3nc(cc(-c4c(C)cccc4C)n3)O2)cc1 [Compound 259] | – |
| +++ (+++ is >60%) | < 1000 | – | – | Cc1cccc(C)c1-c1cc2nc(n1)NS(=O)(=O)c1cccc(c1)C(=O)NC[C@@H](c1ccc(C3CC3)cc1)O2 [Compound 260] | – |
| ++ (++ is 30-60%) | 1000 to 3000 | – | – | Cc1cccc(C)c1-c1cc2nc(n1)NS(=O)(=O)c1cccc(c1)C(=O)NC[C@@H](c1ccc(C3CC3)cc1)O2 [Compound 261] | – |
| +++ (+++ is >60%) | < 1000 | – | – | Cc1cccc(C)c1-c1cc2nc(n1)NS(=O)(=O)c1cccc(c1)C(=O)NC[C@@H](c1ccc(C(C)(C)C(F)(F)F)cc1)O2 [Compound 262] | – |
| + (+ is <30%) | < 1000 | – | – | Cc1cccc(C)c1-c1cc2nc(n1)NS(=O)(=O)c1cccc(c1)C(=O)NCC(c1ccc(CC(C)(C)C)cc1)O2 (centres unmarked) [Compound 264] | – |
| ++ (++ is 30-60%) | < 1000 | – | – | Cc1cccc(C)c1-c1cc2nc(n1)NS(=O)(=O)c1cccc(c1)C(=O)NCC(c1ccc(C3(C)CC3)cc1)O2 (centres unmarked) [Compound 265] | – |
| ++ (++ is 30-60%) | < 1000 | – | – | CCC(CC)(CC)c1ccc(C2CNC(=O)c3cccc(c3)S(=O)(=O)Nc3nc(cc(-c4c(C)cccc4C)n3)O2)cc1 (centres unmarked) [Compound 266] | – |
| – | – | < 1000 | +++ (+++ is >60%) | Cc1cccc(C)c1-c1cc2nc(n1)NS(=O)(=O)c1cccc(c1)C(=O)NCC(c1ccc(CC(C)(C)C)cc1)O2 (centres unmarked) [Compound 267] | – |
| – | – | < 1000 | +++ (+++ is >60%) | Cc1cccc(C)c1-c1cc2nc(n1)NS(=O)(=O)c1cccc(c1)C(=O)NCC(c1ccc(C3CC3)cc1)O2 (centres unmarked) [Compound 268] | – |
| – | – | < 1000 | +++ (+++ is >60%) | Cc1cccc(C)c1-c1cc2nc(n1)NS(=O)(=O)c1cccc(c1)C(=O)NC[C@@H](c1cccc(C(C)(C)C)c1)O2 [Compound 273] | – |
| – | – | < 1000 | – | Cc1cccc(C)c1-c1cc2nc(n1)NS(=O)(=O)c1cccc(c1)C(=O)NCC(c1ccc(C(C)C)cc1)O2 (centres unmarked) [Compound 275] | – |
| – | – | < 1000 | – | Cc1ccccc1[C@@H]1CNC(=O)c2cccc(c2)S(=O)(=O)Nc2nc(cc(-c3c(C)cccc3C)n2)O1 [Compound 276] | – |
| – | – | < 1000 | – | Cc1cccc(C)c1-c1cc2nc(n1)NS(=O)(=O)c1cccc(c1)C(=O)NCC(c1ccccc1C(C)(C)C)O2 (centres unmarked) [Compound 278] | – |
| – | – | < 1000 | +++ (+++ is >60%) | Cc1ccccc1C1CNC(=O)c2cccc(c2)S(=O)(=O)Nc2nc(cc(-c3c(C)cccc3C)n2)O1 (centres unmarked) [Compound 279] | – |
| – | – | < 1000 | +++ (+++ is >60%) | COc1ccccc1C1CNC(=O)c2cccc(c2)S(=O)(=O)Nc2nc(cc(-c3c(C)cccc3C)n2)O1 (centres unmarked) [Compound 280] | – |
| – | – | < 1000 | +++ (+++ is >60%) | Cc1cccc(C)c1-c1cc2nc(n1)NS(=O)(=O)c1cccc(c1)C(=O)NCC(C1CCCCC1)O2 (centres unmarked) [Compound 281] | – |
| + (+ is <30%) | – | – | – | Cc1cccc(C)c1-c1cc2nc(n1)NS(=O)(=O)c1ccccc1C(=O)N[C@H](C)[C@@H](c1ccc(C(C)(C)C)cc1)O2 [Compound 282] | – |
| +++ (+++ is >60%) | < 1000 | – | – | Cc1cccc(C)c1-c1cc2nc(n1)NS(=O)(=O)c1cccc(c1)C(=O)NCC(C1CCC(C)(C)CC1)O2 (centres unmarked) [Compound 283] | – |
